Measured values reported in patent publication US20210380666A1, “SYNTHETIC HEME-CONTAINING MOLECULES AND THEIR USE” (priority 2017, published 2021).
Ends that are not written are not given here.

What was measured:
[1] = CO binding of dithionite-reduced heme molecule by absorbance spectra; conditions: anaerobic, reduced with stoichiometric dithionite, CO saturated phosphate buffered saline added
From the text: A heme molecule bound to two peptide chains Ac-GCHGGR (SEQ ID NO: 2) in a “sandwich” (see FIG. 1), when prepared in anaerobic conditions, changes absorbance spectra (measured by Cary Spec device) with the introduction of stoichiometric amounts of dithionite.

[2] = tested on: 100% CO bound hemoglobin (HbCO); experiment: CO scavenging from CO-bound hemoglobin, UV-visible spectra kinetics; type: biochemical; conditions: 100% HbCO mixed with reduced heme-peptide; spectral changes during reaction

| Substance | CO binding ability (change of absorbance spectra) [1] | kobs for CO scavenging, k1 [2] [s⁻¹] | kobs for CO scavenging, k2 [2] [s⁻¹] |
| --- | --- | --- | --- |
| Ac-GCHGGR: heme molecule bound to two peptide chains Ac-GCHGGR in a sandwich configuration (also: heme molecule bound to two peptide chains in a sandwich configuration) | indicating its CO binding ability | – | – |
| QHGCGGCHG (N-acetyl; heme bound via two thioether bonds) | – | 0.1828 | 0.00968 |
| RCHGGR: heme group bound to two non-contiguous peptides each of sequence RCHGGR (not fully specified (N-terminus); also: heme group bound to two non-contiguous peptide copies) | – | 0.02576 | 0.01241 |
| microperoxidase-11 [MP11, reference compound] | – | 0.0215 | – |
